Tested on: Lin-CD24+CD49f^hi cells
Assay: FACS quantification of stem cell-enriched Lin-CD24+CD49f hi mammary population (MaSC)
Format: in vivo, mouse
Details: MPA for 3 days
Method: a,b, Induction of RANKL expression by the progesterone-derivative MPA. Nulliparous wild type females were s.c. implanted with slow-release MPA pellets or treated with surgery sham. a, RANKL mRNA was determined in purified mammary epithelial cells by qRT-PCR three days after implantation. Data are shown as fold change compared to sham treatment (+/−sem) (n=3). b, In situ […] immunostaining of progesterone receptor (PR, red) and RANKL (green) in mammary epithelial cells after 3d MPA treatment. c, Induction of soluble RANKL protein assayed on isolated mammary gland epithelial cells from control, but not in prolactin receptor mutant (PRL-R KO) females on day 3 after s.c. MPA implantation. […] Proliferation was determined by in situ Ki67 immunostaining. e,f, Marked increase of the stem cell-enriched CD24^+CD49^high population (MaSC) in MPA-treated mammary glands in control but not in RANK^Δmam mammary glands. e, Representative FACS profiles showing CD24 and CD49 expression of lineage negative (CD31^− (endothelial cells) CD45^− (hematopoietic cells) […] (erythroid cells)) of mammary MaSCs from MPA- or sham-treated 8-week old virgin females. f, Quantification of MaSC-enriched CD24^+CD49^high population from mammary glands of MPA- or sham-treated virgin RANK^Δmam and littermate control females. […]

How did the “expansion of Lin-CD24+CD49f hi cells” value (RANKΔmam females) turn out when CC(=O)O[C@]1(C(C)=O)CC[C@H]2[C@@H]3C[C@H](C)C4=CC(=O)CC[C@]4(C)[C@H]3CC[C@@]21C [MPA, medroxyprogesterone acetate] was run?
The value was “did not occur”.

What about the “expansion of Lin-CD24+CD49f hi cells” value (control females) of the same compound?
Its value is “two-fold”.
